The record followed here is patent US8592603B2, “Synthesis of 2-(4-aminophenyl) benzothiazole derivatives and use thereof” (Kaohsiung Medical University, priority 2011, dated 2013).

The test system of data set [1] is BCC cells. In words: Annexin V and PI binding assay. In kind it is cell-based, human. Particulars: for apoptotic cells (annexin V+/PI−): BCC cells, 1 J/cm^2 UVA. The method, then:
(§1) (A) The increased enzymatic activities of the caspase-3 in apoptotic were determined by colorimetric reaction. The cleavage of peptide by the caspase releases the chromophore pNA (p-nitroaniline), which can be quantified spectrophotometrically at a wavelength of 405 nm. (B) Dot plots for BCC cells treated with various concentrations of 6f-UVA and then stained with PI and an annexin V-FITC conjugate specifically detecting the exposure of PS residues at the cell surface. (C) Morphological observation and annexin V/PI double stain were used for the detection of fibroblasts apoptosis. Approximately 10000 cells from each group were analyzed by flow cytometry. Data shown are of a representative experiment repeated three times with similar results. ** p<0.01 as compared with the control.
(§2) To assess the simultaneous observation of early phase of apoptotic and necrotic features, BCC cells were treated with various concentrations (0-4 μM) of Formula 6f for 4 h before irradiation. Twenty-four hours after irradiation, cells were harvested by trypsinization and centrifugation and measured by cytometry by adding annexin V-FITC to […] per sample according to the manufacturer's specifications (Bender MedSystems, Vienna, Austria). Simultaneously, the cells were stained with PI. Flow cytometry data were analyzed by the WinMDI software.

The subject of data set [2] is BCC cells. Nature of the data set: Sub-G1 region analysis (PI, flow cytometry). Particulars: 4 μM for 4 hours, 1 J/cm^2 UVA, 24 h after irradiation. In kind it is cell-based, human. The protocol:
BCC cells were treated with compounds at 4 μM and 1 J/cm^2 UVA. Twenty-four hours after irradiation, cells were harvested by trypsinization and centrifugation. Cell pellets were resuspended in 50% cold ethanol and fixed at −20° C. After fixation, cells were washed once with cold PBS and incubated in 0.5 mL of PBS containing 100 μg/mL RNase A for 20 min at 37° C. Cells were harvested by centrifugation at 400 g for 5 min, and 250 μL of PBS containing 50 μg/mL propidium iodide (PI) was added to the pellet. Thirty minutes later, the DNA contents of 10,000 events were measured by FACSscan flow cytometer (Elite ESP, Beckman Coulter, Brea, Calif.). Histograms were analyzed using Windows Multiple Document Interface software (WinMDI). Cells with DNA content less than that in untreated cells in G0/G1 were considered apoptotic. To investigate the effects of compounds 6 on cell cycle progression of BCC cells, the DNA content of cell nuclei was measured by flow cytometric analysis. […] BCC cells were treated with 4 μM agents for 4 hours followed by 1 J/cm^2 UVA irradiation. Twenty-four hours after irradiation, the PI reagent was used. Approximately 10000 cells from each group were analyzed with the FACScan flow cytometer. The apoptotic effects in 2.2% (control), 6.5% (6a), 13.4% (6b), 29.2% (6c), 24.4% (6d), 6.5% (6e), 35.4% (6f), 13.6% (6g), 13.8% (6h), 14.8% (6i) and 6.4% (6j) of sub-G1 DNA peak were obtained (% represented the percentage of cell counts).

The next data set concerns JNK MAPK. Nature of the data set: Western blot analysis of MAPK phosphorylation: JNK. In kind it is cell-based, human. As to conditions: BCC cells, 6f-UVA (FIG. 6A). The method, then: (§3) (A) After exposure to different concentration of 6f-UVA, cell lysates were collected and immunoblotted with specific antibodies as indicated. For the internal control, the same amounts of protein extract were also probed with antibody against actin. (B) As a control, the expression level of p-ERK was determined in the presence of oligomycin (25 μM) and ATP (1×10^−4M)
(§4) Total cell extracts from cultured BCC cells were obtained by lysing the cells in ice-cold RIPA buffer (1×PBS, 1% NP-40, 0.5% sodium deoxycholate, 0.1% SDS) containing 100 μg/mL PMSF, 2 μg/mL aprotinin, 2 μg/mL leupeptin and 100 μg/mL NaF. After centrifugation at 14,000 g for 30 min, protein in the supernatants was quantified by Bradford method (Bio-Rad). Forty micrograms of protein per lane was applied in 10% SDS-poly-acrylamide gel. After electrophoresis, protein was transferred from the gel to polyvinylidene difluoride (PVDF) membrane (Millipore, Bedford, Mass.). The membranes were blocked at room temperature for 1 h in PBS+0.1% Tween 20 (PBS-T) containing 5% skim milk. After being briefly rinsed with PBS-T, the blots were probed with respective primary antibodies at room temperature for 2 h or at 4° C. overnight. […] The relative amounts of specific proteins were quantified by densitometry scanning of X-ray films and analyzed by Eagle Eye Image System (Stratagene, La Jolla, Calif.)
For orientation: Immunoblotting shows a protein as a band on a membrane.

The test system of a further data set is p38. Nature of the data set: Western blot analysis of MAPK phosphorylation: p38. Format: cell-based, human. Particulars: BCC cells, 6f-UVA at 4 μM, compared with untreated control (FIG. 6A). The method, then:
as §3, §4

In data set [3] the test system is human dermal fibroblast cells. Nature of the data set: Morphology observation and annexin V/PI binding assay on normal cells. In kind it is cell-based. As to conditions: 4 μM for 4 h, 1 J/cm2 UVA (FIG. 4C). The protocol: as §1, §2
BCC or fibroblasts (5×10^5 cells/well) seeded on 6 well plate. […]

For the next data set, the system named is ERK. In words: Western blot analysis of MAPK phosphorylation: ERK. In kind it is cell-based, human. As to conditions: BCC cells, 6f-UVA at 4 μM, compared with untreated control (FIG. 6A). The method, then:
as §3
as §4, with “overnight. Rabbit polyclonal antibodies against JNK (46 kDa), p38 (38 kDa), ERK (42, 44 kDa), and mouse monoclonal antibody against p-JNK, p-p38, p-ERK were purchased from Santa Cruz Biotechnology (Santa Cruz, Calif.). Mouse monoclonal antibody against actin was purchased from Chemicon Int. Inc. (Temecula, Calif.). For the blocking test, 25 μM oligomycin (Sigma, a mitochondria-specific F0F1 ATP synthase inhibitor) or 1×10^−4M ATP (Sigma) was added to the media 30 min before treated with 6f-UVA, respectively. The membrane was incubated with the corresponding horseradish peroxidase-labeled secondary antibody (Santa Cruz Biotechnology) at room temperature for 1 h.” for “overnight.”

A further data set concerns caspase-3. Nature of the data set: Caspase-3 colorimetric assay. In kind it is cell-based, human. As to conditions: BCC cells, 6f-UVA treatment, compared with untreated control, p<0.01 (FIG. 4A). The protocol: as §1
Twenty-four hours after irradiation, cells were collected by centrifugation, washed once with PBS, and cell pellets were counted and resuspended in 25 μL/1×10^6 cells of cold lysis buffer and homogenized. Homogenates were centrifuged at 12,000 rpm for 10 min at 4° C., supernatants were used for measuring caspase-3 activity using an ELISA-based assay, according to the manufacturer's instructions. (R&D Systems, Minneapolis, Minn.). The results were presented as mean±SD.

One may read the melting point as the temperature, or range, at which the solid turns liquid. In turn, `Nc1ccc(-c2nc3ccc(C(F)(F)F)cc3s2)cc1` [Formula 6f, 2-(4-Aminophenyl)-6-trifluoromethylbenzothiazole] registered a melting point of 181 to 183 °C. Besides, in the data set with BCC cells [1] (BCC cells, 0, 2, and 4 μM, 1 J/cm^2 UVA (FIG. 4B)), the “necrotic cells (annexin V+/PI+)” value was “no obvious change”. For the same compound, in the data set with BCC cells [1] (2 μM), the “apoptotic cells (annexin V+/PI−)” value is listed as 19.5%. Moreover, the “apoptotic cells (annexin V+/PI−)” value with BCC cells [1] (4 μM) was 27.5%. The “sub-G1 DNA peak (apoptotic effects, percentage of cell counts)” value in the data set on BCC cells [2] is 35.4%. The “phosphorylation of JNK MAPK” value with JNK MAPK is reported as “did not stimulate the phosphorylation”. Moreover, in the data set with p38, the “phosphorylation of p38 (p-p38)” value is recorded as “increased”. For the same compound, the “apoptotic activity on normal cells” value in data set [3] is reported as “no significant apoptotic effect”. Besides, the “phosphorylation of ERK (p-ERK)” value in the data set with ERK is “increased”. Further, in the data set on caspase-3, the caspase-3 activity entry is reported as “increased”.
